According to patent US10870647B2, “Imidazopyridine derivative, method for preparing same, and pharmaceutical composition containing same as active ingredient for preventing or treating cancer” (DAEGU-GYEONGBUK MEDICAL INNOVATION FOUNDATION, priority 2016, dated 2020):

Legend:
Test in all cases: Kinase selectivity, scanMAX Kinase assay panel (DiscoverX), % control at 1 uM
Format in all cases: binding
[1] = molecular target: T1, scanMAX Kinase assay panel (Homo sapiens, UniProt Q13873); details: BMPR2; 1 uM; read-out: Percent Control (%)
T1 construct: purchased DiscoverX
T1 sequence (Q13873 27-1038): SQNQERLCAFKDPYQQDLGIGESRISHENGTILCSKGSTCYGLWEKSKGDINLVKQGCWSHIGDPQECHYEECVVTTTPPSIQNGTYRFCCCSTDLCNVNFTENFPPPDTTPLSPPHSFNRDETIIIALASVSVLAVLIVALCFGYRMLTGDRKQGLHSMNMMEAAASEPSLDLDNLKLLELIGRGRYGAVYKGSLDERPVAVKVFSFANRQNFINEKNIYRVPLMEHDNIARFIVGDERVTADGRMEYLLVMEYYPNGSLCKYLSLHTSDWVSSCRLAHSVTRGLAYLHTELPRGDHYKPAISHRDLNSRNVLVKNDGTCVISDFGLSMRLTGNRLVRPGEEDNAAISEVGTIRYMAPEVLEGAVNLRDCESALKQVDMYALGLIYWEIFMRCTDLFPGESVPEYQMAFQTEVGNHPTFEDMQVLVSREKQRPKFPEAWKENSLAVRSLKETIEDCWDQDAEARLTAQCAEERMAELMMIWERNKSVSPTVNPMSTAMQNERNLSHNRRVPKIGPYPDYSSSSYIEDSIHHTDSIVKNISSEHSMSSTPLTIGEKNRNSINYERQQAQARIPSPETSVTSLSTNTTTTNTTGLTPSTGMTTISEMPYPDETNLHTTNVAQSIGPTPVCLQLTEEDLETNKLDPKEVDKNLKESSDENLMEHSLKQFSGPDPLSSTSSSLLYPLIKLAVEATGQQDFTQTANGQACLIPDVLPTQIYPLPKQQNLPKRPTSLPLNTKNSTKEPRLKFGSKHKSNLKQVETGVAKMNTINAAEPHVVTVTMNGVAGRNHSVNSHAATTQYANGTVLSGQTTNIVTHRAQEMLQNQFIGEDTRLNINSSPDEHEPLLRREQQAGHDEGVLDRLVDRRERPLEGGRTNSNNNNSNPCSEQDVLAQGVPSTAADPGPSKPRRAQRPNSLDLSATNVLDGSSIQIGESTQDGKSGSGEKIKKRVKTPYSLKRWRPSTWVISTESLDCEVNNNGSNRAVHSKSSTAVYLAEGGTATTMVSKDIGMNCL
Procedure, shortened: (§1)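 1 uM cpd (DMSO) per kinase; % ctrl = [cpd − pos ctrl]/[neg ctrl − pos ctrl] × 100; hit if <35.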

[2] = molecular target: T2, scanMAX Kinase assay panel (Homo sapiens, UniProt Q96Q40); details: PFTAIRE2; 1 uM; read-out: Percent Control (%)
T2 construct: purchased DiscoverX
T2 sequence (Q96Q40 whole entry): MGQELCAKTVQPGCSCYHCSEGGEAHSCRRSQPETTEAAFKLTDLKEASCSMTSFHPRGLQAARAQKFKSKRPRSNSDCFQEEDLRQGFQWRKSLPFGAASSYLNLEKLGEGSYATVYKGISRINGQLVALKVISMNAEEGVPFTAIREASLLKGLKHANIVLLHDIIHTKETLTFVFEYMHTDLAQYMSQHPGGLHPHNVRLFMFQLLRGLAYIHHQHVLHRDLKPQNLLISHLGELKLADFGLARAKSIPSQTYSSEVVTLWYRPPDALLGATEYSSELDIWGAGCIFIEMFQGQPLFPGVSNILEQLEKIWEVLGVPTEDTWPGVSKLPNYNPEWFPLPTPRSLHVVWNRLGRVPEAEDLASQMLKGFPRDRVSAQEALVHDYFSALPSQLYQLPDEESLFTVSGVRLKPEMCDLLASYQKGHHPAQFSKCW
Procedure, shortened: as §1

[3] = molecular target: T3, scanMAX Kinase assay panel (Homo sapiens, UniProt P24941); details: CDK2; 1 uM; read-out: Percent Control (%)
T3 construct: purchased DiscoverX
Procedure, shortened: as §1

[4] = molecular target: T4, scanMAX Kinase assay panel (Homo sapiens, UniProt P42336, E545K); details: PIK3CA (E545K); 1 uM; read-out: Percent Control (%)
T4 construct: purchased DiscoverX
T4 sequence (P42336 whole entry E545K): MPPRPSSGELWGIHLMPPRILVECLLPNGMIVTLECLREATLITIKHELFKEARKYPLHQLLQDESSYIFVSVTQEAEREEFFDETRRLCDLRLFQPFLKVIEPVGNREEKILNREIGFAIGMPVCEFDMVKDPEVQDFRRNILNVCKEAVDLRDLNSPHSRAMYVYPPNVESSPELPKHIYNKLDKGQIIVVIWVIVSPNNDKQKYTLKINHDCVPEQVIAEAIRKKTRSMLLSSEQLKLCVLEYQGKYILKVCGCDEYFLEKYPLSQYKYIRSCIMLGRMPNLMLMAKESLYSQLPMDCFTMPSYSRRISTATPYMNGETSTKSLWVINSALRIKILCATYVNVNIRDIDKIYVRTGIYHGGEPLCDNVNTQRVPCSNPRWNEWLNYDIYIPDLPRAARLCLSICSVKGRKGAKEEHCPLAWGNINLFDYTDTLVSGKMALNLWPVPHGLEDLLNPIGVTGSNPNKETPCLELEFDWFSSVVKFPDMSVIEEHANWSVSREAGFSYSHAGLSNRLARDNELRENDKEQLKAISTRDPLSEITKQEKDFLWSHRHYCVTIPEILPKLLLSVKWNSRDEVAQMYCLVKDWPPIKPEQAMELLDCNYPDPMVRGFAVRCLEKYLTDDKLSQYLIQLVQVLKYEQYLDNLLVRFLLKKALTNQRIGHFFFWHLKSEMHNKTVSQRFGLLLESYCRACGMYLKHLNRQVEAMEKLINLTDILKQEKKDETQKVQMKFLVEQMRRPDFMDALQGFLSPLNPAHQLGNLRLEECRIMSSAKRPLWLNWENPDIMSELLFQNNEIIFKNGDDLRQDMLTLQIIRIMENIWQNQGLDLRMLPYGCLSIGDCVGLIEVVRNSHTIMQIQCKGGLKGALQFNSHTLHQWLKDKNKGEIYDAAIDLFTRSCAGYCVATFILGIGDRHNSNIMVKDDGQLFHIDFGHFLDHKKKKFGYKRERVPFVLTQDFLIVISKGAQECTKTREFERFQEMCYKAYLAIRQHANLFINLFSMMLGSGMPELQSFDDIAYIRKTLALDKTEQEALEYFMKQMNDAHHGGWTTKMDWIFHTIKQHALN
Procedure, shortened: as §1

[5] = molecular target: T5, scanMAX Kinase assay panel (Homo sapiens, UniProt Q32MK0); details: MLCK; 1 uM; read-out: Percent Control (%)
T5 construct: purchased DiscoverX
T5 sequence (Q32MK0 1-819): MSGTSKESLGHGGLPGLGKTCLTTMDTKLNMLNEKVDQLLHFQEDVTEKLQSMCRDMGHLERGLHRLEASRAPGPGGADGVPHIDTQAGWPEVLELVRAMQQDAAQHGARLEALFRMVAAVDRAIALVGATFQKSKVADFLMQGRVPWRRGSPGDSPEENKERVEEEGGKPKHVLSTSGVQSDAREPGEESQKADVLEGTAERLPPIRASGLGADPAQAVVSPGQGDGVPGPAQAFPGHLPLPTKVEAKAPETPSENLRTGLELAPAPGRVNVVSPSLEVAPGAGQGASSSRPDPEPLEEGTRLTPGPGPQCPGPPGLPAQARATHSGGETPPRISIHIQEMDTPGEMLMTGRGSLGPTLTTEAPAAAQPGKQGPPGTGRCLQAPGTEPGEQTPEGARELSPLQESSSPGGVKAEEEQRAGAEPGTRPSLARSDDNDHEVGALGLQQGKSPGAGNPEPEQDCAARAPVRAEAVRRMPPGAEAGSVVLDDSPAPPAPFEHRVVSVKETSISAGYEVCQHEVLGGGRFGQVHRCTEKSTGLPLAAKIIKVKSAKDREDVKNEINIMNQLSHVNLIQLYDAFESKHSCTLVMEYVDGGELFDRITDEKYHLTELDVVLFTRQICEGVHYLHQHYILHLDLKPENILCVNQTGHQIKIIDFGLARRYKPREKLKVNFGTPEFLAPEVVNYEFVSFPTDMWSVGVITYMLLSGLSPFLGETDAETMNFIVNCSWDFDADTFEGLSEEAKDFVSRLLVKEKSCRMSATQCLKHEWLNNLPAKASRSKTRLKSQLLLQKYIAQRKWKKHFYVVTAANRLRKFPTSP
Procedure, shortened: as §1

Compound | remaining binding at 1 µM [1] [%] | remaining binding at 1 µM [2] [%] | remaining binding at 1 µM [3] [%] | remaining binding at 1 µM [4] [%] | remaining binding at 1 µM [5] [%]
Cc1ccc(C(=O)Nc2ccc(CN3CCN(C)CC3)c(C(F)(F)F)c2)cc1C#Cc1cnc2c(Nc3cnn(C)c3)cccn12 [Example 1, 4-methyl-3-((8-((1-methyl-1H-pyrazol-4-yl)amino)imidazo[1,2-a]pyridin-3-yl)ethynyl)-N-(4-((4-methylpiperazin-1-yl)methyl)-3-(trifluoromethyl)phenyl)benzamide] | 82 | 6 | 29 | 81 | 90
Cc1cn(-c2cc(NC(=O)c3ccc(C)c(C#Cc4cnc5c(Nc6cnn(C)c6)cccn45)c3)cc(C(F)(F)F)c2)cn1 [Example 12, 4-methyl-N-(3-(4-methyl-1H-imidazol-1-yl)-5-(trifluoromethyl)phenyl)-3-((8-((1-methyl-1H-pyrazol-4-yl)amino)imidazo[1,2-a]pyridin-3-yl)ethynyl)benzamide] | 100 | 75 | 85 | 77 | 91
Cc1ccc(NC(=O)C2(C(=O)Nc3ccc(F)cc3)CC2)cc1C#Cc1cnc2c(Nc3cnn(C(C)C)c3)cccn12 [Example 78] | 84 | 100 | 95 | 92 | 100
